In ChEMBL document CHEMBL4507289, “Data for DCP probe GSM1” (2021):

Key:
[1] = system: ALK tyrosine kinase receptor (Homo sapiens), Q9UM73 [C1156Y]; settings: Compound concentration 1000.0 nM
[2] = molecular target: Aurora kinase B (Homo sapiens) (UniProt Q96GD4); settings: Compound concentration 1000.0 nM
[3] = molecular target: Bone morphogenetic protein receptor type-1B (Homo sapiens) (UniProt O00238); settings: Compound concentration 1000.0 nM
[4] = molecular target: Calcium/calmodulin-dependent protein kinase kinase 1 (Homo sapiens) (UniProt Q8N5S9); settings: Compound concentration 1000.0 nM
[5] = molecular target: Cyclin-dependent kinase 4 (Homo sapiens) (UniProt P11802); settings: Compound concentration 1000.0 nM
[6] = molecular target: Mitogen-activated protein kinase kinase kinase 12 (Homo sapiens) (UniProt Q12852); settings: Compound concentration 1000.0 nM
[7] = molecular target: Dual specificity tyrosine-phosphorylation-regulated kinase 2 (Homo sapiens) (UniProt Q92630); settings: Compound concentration 1000.0 nM
[8] = system: Epidermal growth factor receptor (Homo sapiens), P00533 [L858R,T790M]; settings: Compound concentration 1000.0 nM
[9] = molecular target: Ephrin type-A receptor 8 (Homo sapiens) (UniProt P29322); settings: Compound concentration 1000.0 nM
[10] = molecular target: Mitogen-activated protein kinase 3 (Homo sapiens) (UniProt P27361); settings: Compound concentration 1000.0 nM
[11] = molecular target: Mitogen-activated protein kinase 15 (Homo sapiens) (UniProt Q8TD08); settings: Compound concentration 1000.0 nM
[12] = molecular target: Focal adhesion kinase 1 (Homo sapiens) (UniProt Q05397); settings: Compound concentration 1000.0 nM
[13] = molecular target: Vascular endothelial growth factor receptor 1 (Homo sapiens) (UniProt P17948); settings: Compound concentration 1000.0 nM
[14] = system: Receptor-type tyrosine-protein kinase FLT3 (Homo sapiens), P36888 [D835V]; settings: Compound concentration 1000.0 nM
[15] = system: Receptor-type tyrosine-protein kinase FLT3 (Homo sapiens), P36888 [N841I]; settings: Compound concentration 1000.0 nM
[16] = molecular target: Mitogen-activated protein kinase kinase kinase kinase 1 (Homo sapiens) (UniProt Q92918); settings: Compound concentration 1000.0 nM
[17] = molecular target: Interleukin-1 receptor-associated kinase 1 (Homo sapiens) (UniProt P51617); settings: Compound concentration 1000.0 nM
[18] = molecular target: Interleukin-1 receptor-associated kinase 3 (Homo sapiens) (UniProt Q9Y616); settings: Compound concentration 1000.0 nM
[19] = molecular target: Interleukin-1 receptor-associated kinase 4 (Homo sapiens) (UniProt Q9NWZ3); settings: Compound concentration 1000.0 nM
[20] = molecular target: Tyrosine-protein kinase JAK3 (Homo sapiens) (UniProt P52333); settings: Compound concentration 1000.0 nM
[21] = system: Mast/stem cell growth factor receptor Kit (Homo sapiens), P10721 [D816V]; settings: Compound concentration 1000.0 nM
[22] = system: Mast/stem cell growth factor receptor Kit (Homo sapiens), P10721 [V559D,V654A]; settings: Compound concentration 1000.0 nM
[23] = molecular target: Mast/stem cell growth factor receptor Kit (Homo sapiens) (UniProt P10721); settings: Compound concentration 1000.0 nM
[24] = molecular target: Mitogen-activated protein kinase kinase kinase 2 (Homo sapiens) (UniProt Q9Y2U5); settings: Compound concentration 1000.0 nM
[25] = molecular target: MAP/microtubule affinity-regulating kinase 3 (Homo sapiens) (UniProt P27448); settings: Compound concentration 1000.0 nM
[26] = molecular target: Hepatocyte growth factor receptor (Homo sapiens) (UniProt P08581); settings: Compound concentration 1000.0 nM
[27] = molecular target: MAP kinase-interacting serine/threonine-protein kinase 1 (Homo sapiens) (UniProt Q9BUB5); settings: Compound concentration 1000.0 nM
[28] = molecular target: MAP kinase-interacting serine/threonine-protein kinase 2 (Homo sapiens) (UniProt Q9HBH9); settings: Compound concentration 1000.0 nM
[29] = molecular target: Serine/threonine-protein kinase 38-like (Homo sapiens) (UniProt Q9Y2H1); settings: Compound concentration 1000.0 nM
[30] = molecular target: Phosphorylase b kinase regulatory subunit alpha, liver isoform (Homo sapiens) (UniProt P46019); settings: Compound concentration 1000.0 nM
[31] = system: Phosphatidylinositol 4,5-bisphosphate 3-kinase catalytic subunit alpha isoform (Homo sapiens), P42336 [M1043I]; settings: Compound concentration 1000.0 nM
[32] = molecular target: Phosphatidylinositol 4,5-bisphosphate 3-kinase catalytic subunit gamma isoform (Homo sapiens) (UniProt P48736); settings: Compound concentration 1000.0 nM
[33] = molecular target: RAF proto-oncogene serine/threonine-protein kinase (Homo sapiens) (UniProt P04049); settings: Compound concentration 1000.0 nM
[34] = molecular target: Ribosomal protein S6 kinase alpha-1 (Homo sapiens) (UniProt Q15418); settings: Compound concentration 1000.0 nM
[35] = molecular target: Serine/threonine-protein kinase Sgk3 (Homo sapiens) (UniProt Q96BR1); settings: Compound concentration 1000.0 nM
[36] = molecular target: SRSF protein kinase 2 (Homo sapiens) (UniProt P78362); settings: Compound concentration 1000.0 nM
[37] = molecular target: Serine/threonine-protein kinase 36 (Homo sapiens) (UniProt Q9NRP7); settings: Compound concentration 1000.0 nM
[38] = molecular target: Serine/threonine-protein kinase TAO1 (Homo sapiens) (UniProt Q7L7X3); settings: Compound concentration 1000.0 nM
[39] = molecular target: Tyrosine-protein kinase Tec (Homo sapiens) (UniProt P42680); settings: Compound concentration 1000.0 nM
[40] = molecular target: Non-receptor tyrosine-protein kinase TYK2 (Homo sapiens) (UniProt P29597); settings: Compound concentration 1000.0 nM
[41] = molecular target: Serine/threonine-protein kinase 32C (Homo sapiens) (UniProt Q86UX6); settings: Compound concentration 1000.0 nM
[42] = molecular target: Tyrosine-protein kinase ZAP-70 (Homo sapiens) (UniProt P43403); settings: Compound concentration 1000.0 nM
[43] = molecular target: 5-hydroxytryptamine receptor 2A (Homo sapiens) (UniProt P28223); settings: Compound concentration 10.0 uM
[44] = molecular target: 5-hydroxytryptamine receptor 2C (Homo sapiens) (UniProt P28335); settings: Compound concentration 10.0 uM
[45] = molecular target: 5-hydroxytryptamine receptor 6 (Homo sapiens) (UniProt P50406); settings: Compound concentration 10.0 uM

Sequence of Dual specificity tyrosine-phosphorylation-regulated kinase 2 (Homo sapiens) (Q92630 whole entry): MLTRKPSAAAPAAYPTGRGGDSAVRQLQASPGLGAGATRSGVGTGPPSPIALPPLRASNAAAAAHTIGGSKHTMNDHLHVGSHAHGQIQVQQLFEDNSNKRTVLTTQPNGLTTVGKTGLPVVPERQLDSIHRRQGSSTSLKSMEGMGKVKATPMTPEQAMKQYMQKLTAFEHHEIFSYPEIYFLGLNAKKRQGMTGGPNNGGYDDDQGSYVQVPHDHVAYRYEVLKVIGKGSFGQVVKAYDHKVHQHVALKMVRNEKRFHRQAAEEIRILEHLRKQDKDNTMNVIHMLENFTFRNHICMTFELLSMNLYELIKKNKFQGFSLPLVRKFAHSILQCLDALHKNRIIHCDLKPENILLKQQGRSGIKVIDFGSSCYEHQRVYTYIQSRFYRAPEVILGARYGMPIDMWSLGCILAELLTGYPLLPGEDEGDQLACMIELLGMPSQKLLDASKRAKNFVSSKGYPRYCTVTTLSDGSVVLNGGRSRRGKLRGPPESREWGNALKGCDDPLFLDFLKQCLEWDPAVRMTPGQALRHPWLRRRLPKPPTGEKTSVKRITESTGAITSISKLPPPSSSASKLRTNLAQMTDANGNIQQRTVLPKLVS
Sequence of Ribosomal protein S6 kinase alpha-1 (Homo sapiens) (Q15418 whole entry): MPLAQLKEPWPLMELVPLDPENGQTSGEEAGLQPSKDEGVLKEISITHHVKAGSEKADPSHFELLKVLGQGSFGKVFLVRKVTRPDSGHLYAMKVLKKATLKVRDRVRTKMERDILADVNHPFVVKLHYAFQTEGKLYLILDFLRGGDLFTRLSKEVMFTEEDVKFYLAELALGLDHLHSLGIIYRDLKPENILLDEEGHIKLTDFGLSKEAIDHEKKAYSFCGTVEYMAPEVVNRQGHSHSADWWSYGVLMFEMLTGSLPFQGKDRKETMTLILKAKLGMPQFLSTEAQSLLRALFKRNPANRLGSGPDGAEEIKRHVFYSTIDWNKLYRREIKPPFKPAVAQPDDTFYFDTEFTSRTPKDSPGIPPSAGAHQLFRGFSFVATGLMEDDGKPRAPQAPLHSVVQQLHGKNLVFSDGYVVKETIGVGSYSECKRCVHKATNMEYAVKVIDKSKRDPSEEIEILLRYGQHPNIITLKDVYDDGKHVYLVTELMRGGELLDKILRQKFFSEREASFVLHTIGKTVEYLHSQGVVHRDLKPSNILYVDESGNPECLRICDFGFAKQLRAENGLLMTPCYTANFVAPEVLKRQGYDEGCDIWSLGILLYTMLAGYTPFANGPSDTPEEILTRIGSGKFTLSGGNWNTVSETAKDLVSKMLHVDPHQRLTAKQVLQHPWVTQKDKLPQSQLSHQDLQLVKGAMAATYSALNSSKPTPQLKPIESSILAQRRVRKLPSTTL
Sequence of RAF proto-oncogene serine/threonine-protein kinase (Homo sapiens) (P04049 whole entry): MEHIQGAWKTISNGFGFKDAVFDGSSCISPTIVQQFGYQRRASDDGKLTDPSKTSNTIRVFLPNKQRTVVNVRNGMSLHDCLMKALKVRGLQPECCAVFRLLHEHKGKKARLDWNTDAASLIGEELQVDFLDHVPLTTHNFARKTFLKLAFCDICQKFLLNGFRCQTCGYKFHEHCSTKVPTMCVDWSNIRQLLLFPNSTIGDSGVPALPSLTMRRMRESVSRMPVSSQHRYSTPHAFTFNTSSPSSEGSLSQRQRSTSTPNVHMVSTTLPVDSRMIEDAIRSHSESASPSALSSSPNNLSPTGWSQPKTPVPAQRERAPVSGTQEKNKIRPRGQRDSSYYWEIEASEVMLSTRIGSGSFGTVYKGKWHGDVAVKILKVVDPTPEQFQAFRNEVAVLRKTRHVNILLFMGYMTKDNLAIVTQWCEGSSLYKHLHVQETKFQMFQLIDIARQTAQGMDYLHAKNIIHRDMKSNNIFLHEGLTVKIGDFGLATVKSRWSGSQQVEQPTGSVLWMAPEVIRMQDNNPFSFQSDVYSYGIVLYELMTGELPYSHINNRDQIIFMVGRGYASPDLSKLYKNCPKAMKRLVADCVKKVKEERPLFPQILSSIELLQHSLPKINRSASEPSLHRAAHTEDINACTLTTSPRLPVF
Sequence of Mitogen-activated protein kinase kinase kinase kinase 1 (Homo sapiens) (Q92918 whole entry, looked up): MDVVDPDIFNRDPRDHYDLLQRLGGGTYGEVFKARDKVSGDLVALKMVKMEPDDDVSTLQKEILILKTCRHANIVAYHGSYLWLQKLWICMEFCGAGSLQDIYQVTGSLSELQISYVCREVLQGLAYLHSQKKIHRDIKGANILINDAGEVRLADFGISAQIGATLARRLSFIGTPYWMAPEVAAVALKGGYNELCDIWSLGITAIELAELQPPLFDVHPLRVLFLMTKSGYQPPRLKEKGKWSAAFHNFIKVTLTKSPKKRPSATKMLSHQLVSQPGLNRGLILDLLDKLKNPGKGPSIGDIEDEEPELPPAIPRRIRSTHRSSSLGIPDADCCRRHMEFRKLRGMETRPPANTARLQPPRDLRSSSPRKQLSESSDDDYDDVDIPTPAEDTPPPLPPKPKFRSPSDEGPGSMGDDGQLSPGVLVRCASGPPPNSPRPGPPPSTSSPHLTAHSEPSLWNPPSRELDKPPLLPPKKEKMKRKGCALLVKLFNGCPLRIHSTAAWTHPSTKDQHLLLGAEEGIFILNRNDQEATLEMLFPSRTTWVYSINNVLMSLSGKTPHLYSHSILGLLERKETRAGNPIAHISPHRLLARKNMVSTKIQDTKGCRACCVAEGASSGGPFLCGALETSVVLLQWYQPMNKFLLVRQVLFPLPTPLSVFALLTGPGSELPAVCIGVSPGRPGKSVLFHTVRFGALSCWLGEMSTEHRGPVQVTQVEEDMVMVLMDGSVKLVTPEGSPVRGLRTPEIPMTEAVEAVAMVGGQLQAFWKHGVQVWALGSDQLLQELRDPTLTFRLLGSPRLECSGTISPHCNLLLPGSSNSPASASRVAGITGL
Sequence of Phosphatidylinositol 4,5-bisphosphate 3-kinase catalytic subunit alpha isoform (Homo sapiens), P42336 [M1043I] (P42336 whole entry M1043I, canonical isoform): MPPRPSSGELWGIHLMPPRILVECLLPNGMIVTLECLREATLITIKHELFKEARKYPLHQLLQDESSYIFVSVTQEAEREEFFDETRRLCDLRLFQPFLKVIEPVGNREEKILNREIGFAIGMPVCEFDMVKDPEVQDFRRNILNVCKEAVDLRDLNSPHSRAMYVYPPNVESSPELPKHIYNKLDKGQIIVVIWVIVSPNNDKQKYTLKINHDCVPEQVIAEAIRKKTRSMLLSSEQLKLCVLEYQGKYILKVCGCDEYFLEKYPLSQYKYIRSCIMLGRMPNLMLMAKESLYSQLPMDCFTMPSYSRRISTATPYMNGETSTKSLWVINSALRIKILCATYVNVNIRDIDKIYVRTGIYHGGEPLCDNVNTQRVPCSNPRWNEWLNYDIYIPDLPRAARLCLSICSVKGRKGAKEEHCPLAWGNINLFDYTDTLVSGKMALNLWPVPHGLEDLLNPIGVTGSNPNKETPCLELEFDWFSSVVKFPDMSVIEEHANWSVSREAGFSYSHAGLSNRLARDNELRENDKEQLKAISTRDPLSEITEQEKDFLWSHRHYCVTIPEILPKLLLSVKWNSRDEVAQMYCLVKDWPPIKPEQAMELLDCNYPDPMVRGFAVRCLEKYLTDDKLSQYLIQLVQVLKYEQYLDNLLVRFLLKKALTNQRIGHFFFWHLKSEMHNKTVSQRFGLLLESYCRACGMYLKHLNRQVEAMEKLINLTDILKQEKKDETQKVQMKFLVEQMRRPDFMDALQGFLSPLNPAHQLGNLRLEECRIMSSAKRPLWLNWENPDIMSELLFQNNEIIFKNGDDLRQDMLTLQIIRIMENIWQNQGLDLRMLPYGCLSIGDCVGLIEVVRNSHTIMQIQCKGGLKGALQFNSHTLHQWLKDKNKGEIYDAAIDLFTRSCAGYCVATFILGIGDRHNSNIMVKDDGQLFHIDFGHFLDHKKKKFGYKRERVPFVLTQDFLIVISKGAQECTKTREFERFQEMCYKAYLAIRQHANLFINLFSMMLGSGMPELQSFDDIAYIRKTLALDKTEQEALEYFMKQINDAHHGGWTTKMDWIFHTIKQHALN
Sequence of SRSF protein kinase 2 (Homo sapiens) (P78362 whole entry, looked up): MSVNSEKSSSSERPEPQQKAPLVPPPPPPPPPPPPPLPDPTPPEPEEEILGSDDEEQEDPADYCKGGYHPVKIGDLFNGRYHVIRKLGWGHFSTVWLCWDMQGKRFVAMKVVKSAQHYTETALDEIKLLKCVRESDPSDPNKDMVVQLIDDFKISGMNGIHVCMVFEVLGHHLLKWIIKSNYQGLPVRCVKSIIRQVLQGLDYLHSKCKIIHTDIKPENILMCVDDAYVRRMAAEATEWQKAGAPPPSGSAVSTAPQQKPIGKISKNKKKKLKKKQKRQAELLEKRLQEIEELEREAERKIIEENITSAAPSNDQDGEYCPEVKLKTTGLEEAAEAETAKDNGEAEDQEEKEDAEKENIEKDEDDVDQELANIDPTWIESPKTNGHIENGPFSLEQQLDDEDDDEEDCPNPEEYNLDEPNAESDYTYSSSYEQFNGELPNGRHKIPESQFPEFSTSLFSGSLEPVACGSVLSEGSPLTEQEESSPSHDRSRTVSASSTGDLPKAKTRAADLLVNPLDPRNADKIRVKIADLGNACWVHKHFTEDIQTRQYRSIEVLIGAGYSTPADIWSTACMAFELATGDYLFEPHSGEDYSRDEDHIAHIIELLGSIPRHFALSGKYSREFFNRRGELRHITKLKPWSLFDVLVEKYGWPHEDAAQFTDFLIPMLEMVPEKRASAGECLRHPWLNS
Sequence of Serine/threonine-protein kinase 38-like (Homo sapiens) (Q9Y2H1 2-464 limits assumed): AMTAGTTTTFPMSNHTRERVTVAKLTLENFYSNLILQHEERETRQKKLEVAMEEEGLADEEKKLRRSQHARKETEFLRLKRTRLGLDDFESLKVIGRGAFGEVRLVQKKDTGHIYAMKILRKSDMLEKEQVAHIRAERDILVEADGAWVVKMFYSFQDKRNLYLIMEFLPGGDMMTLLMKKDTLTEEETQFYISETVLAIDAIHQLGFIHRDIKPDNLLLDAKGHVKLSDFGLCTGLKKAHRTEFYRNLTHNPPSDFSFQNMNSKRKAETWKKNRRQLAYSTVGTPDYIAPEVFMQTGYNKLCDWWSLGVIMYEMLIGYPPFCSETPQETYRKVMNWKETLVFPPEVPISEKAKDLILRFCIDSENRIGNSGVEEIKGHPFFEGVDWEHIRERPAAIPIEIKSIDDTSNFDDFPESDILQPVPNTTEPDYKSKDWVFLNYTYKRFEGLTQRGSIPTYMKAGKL

COc1cc(-c2cn([C@H]3CCc4c(F)cccc4N(CC(F)(F)F)C3=O)nn2)ccc1-n1cnc(C)c1
inactive: residual activity [1] 100% | residual activity [2] 100% | residual activity [3] 100% | residual activity [4] 100% | residual activity [5] 88% | residual activity [6] 100% | residual activity [7] 100% | residual activity [8] 82% | residual activity [9] 100% | residual activity [10] 100% | residual activity [11] 78% | residual activity [12] 100% | residual activity [13] 97% | residual activity [14] 97% | residual activity [15] 99% | residual activity [16] 100% | residual activity [17] 100% | residual activity [18] 100% | residual activity [19] 100% | residual activity [20] 100% | residual activity [21] 100% | residual activity [22] 97% | residual activity [23] 100% | residual activity [24] 94% | residual activity [25] 100% | residual activity [26] 100% | residual activity [27] 87% | residual activity [28] 76% | residual activity [29] 78% | residual activity [30] 100% | residual activity [31] 100% | residual activity [32] 84% | residual activity [33] 100% | residual activity [34] 81% | residual activity [35] 100% | residual activity [36] 100% | residual activity [37] 100% | residual activity [38] 100% | residual activity [39] 100% | residual activity [40] 100% | residual activity [41] 100% | residual activity [42] 100% | inhibition [43] 11.5% | inhibition [44] 27.6% | inhibition [45] -4.64%

COc1cc(-c2cn([C@H]3CCc4ccccc4N(CC(F)(F)F)C3=O)nn2)ccc1-n1ccc(C)n1
inactive: residual activity [1] 100% | residual activity [2] 89% | residual activity [3] 100% | residual activity [4] 100% | residual activity [5] 53% | residual activity [6] 100% | residual activity [7] 94% | residual activity [8] 65% | residual activity [9] 100% | residual activity [10] 100% | residual activity [11] 100% | residual activity [12] 100% | residual activity [13] 100% | residual activity [14] 80% | residual activity [15] 100% | residual activity [16] 100% | residual activity [17] 100% | residual activity [18] 91% | residual activity [19] 95% | residual activity [20] 88% | residual activity [21] 100% | residual activity [22] 100% | residual activity [23] 100% | residual activity [24] 100% | residual activity [25] 100% | residual activity [26] 100% | residual activity [27] 78% | residual activity [28] 66% | residual activity [29] 75% | residual activity [30] 100% | residual activity [31] 100% | residual activity [32] 67% | residual activity [33] 98% | residual activity [34] 82% | residual activity [35] 84% | residual activity [36] 81% | residual activity [37] 79% | residual activity [38] 92% | residual activity [39] 100% | residual activity [40] 100% | residual activity [41] 84% | residual activity [42] 82% | inhibition [43] 5.83% | inhibition [44] 16.9% | inhibition [45] -1.39%
